Earlier results, collected in patent publication US20260001860A1, “METHODS AND COMPOSITIONS OF INHIBITING DCN1-UBC12 INTERACTION” (University of Kentucky Research Foundation, priority 2022, published 2026).

Settings: patient population taking either proteasome inhibitor

| SMILES | patient population exhibiting grade 3 hematologic adverse events (thrombocytopenia and neutropenia) [%] | patients suffering grade 4 adverse events (potentially life-threatening) [%] |
| --- | --- | --- |
| CC(C)C[C@H](NC(=O)[C@H](Cc1ccccc1)NC(=O)c1cnccn1)B(O)O [bortezomib] | 50 | ~15 |
| CC(C)C[C@H](NC(=O)[C@H](CCc1ccccc1)NC(=O)CN1CCOCC1)C(=O)N[C@@H](Cc1ccccc1)C(=O)N[C@@H](CC(C)C)C(=O)[C@@]1(C)CO1 [carfilzomib] | 50 | ~15 |
